Test system: 171881-019-R-J1-PDC complex spheroid growth, % test/control
Assay: Anticancer human tumor 171881-019-R-J1-PDC patient-derived invasive breast carcinoma cell line growth inhibition [Asc]
Settings: for IC50: curve of first compound; for viability, T/C: stronger effect = lower value
How it was run: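 Complex spheroids combining tumor cells with HUVEC endothelial cells and human MSCs, at 37 degrees C, 5% CO2; agents tested alone or combined, half-log dilutions from at or near clinical Cmax, or 10 microM if Cmax unknown.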

[1] = second compound 0.03 µM, first compound 0.00316 µM
[2] = second compound 0.03 µM, first compound 0.01 µM
[3] = second compound 0.03 µM, first compound 0.0316 µM
[4] = second compound 0.03 µM, first compound 0.1 µM
[5] = second compound 0.0949 µM, first compound 0.00316 µM
[6] = second compound 0.0949 µM, first compound 0.01 µM
[7] = second compound 0.0949 µM, first compound 0.0316 µM
[8] = second compound 0.0949 µM, first compound 0.1 µM
[9] = second compound 0.3 µM, first compound 0.00316 µM
[10] = second compound 0.3 µM, first compound 0.01 µM
[11] = second compound 0.3 µM, first compound 0.0316 µM
[12] = second compound 0.3 µM, first compound 0.1 µM
[13] = second compound 0.949 µM, first compound 0.00316 µM
[14] = second compound 0.949 µM, first compound 0.01 µM
[15] = second compound 0.949 µM, first compound 0.0316 µM
[16] = second compound 0.949 µM, first compound 0.1 µM
[17] = second compound 3 µM, first compound 0.00316 µM
[18] = second compound 3 µM, first compound 0.01 µM
[19] = second compound 3 µM, first compound 0.0316 µM
[20] = second compound 3 µM, first compound 0.1 µM
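Throughout, for viability, T/C: spheroids exposed to compounds for 7 days.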

How did the IC50 (second compound 0.1 µM) turn out when C=CC(=O)N1CCN(c2nc(=O)n(-c3c(C)ccnc3C(C)C)c3nc(-c4c(O)cccc4F)c(F)cc23)C(C)C1 (stereo not given) + Cc1c(S(C)(=O)=O)c(-c2cc(F)cc(N3CCN(c4ccc(NS(=O)(=O)c5ccc(NC(CCN6CCC(C(=O)OCCCP(=O)(O)O)CC6)CSc6ccccc6)c(S(=O)(=O)C(F)(F)F)c5)cc4)CC3)c2)c(-c2ccc(Cl)cc2)n1C(C)C was run?
The IC50 was > 10000 nM.

What about the IC50 (second compound 0.316 µM) of the same compound?
Its IC50 is > 10000 nM.

What about the IC50 (second compound 1 µM) of the same compound?
Its IC50 is > 10000 nM.

What about the IC50 (second compound 3.16 µM) of the same compound?
The IC50 was > 10000 nM.

And the IC50 (second compound 10 µM)?
The IC50 was > 10000 nM.

What about the viability, T/C (second compound 0.1 µM, first compound 0.0316 µM) of the same compound?
Its viability, T/C is 92.3%.

And the viability, T/C (second compound 0.1 µM, first compound 0.1 µM)?
The viability, T/C was 111%.

What about the viability, T/C (second compound 0.1 µM, first compound 0.316 µM) of the same compound?
Its viability, T/C is 100%.

What about the viability, T/C (second compound 0.1 µM, first compound 1 µM) of the same compound?
Its viability, T/C is 86%.

What about the viability, T/C (second compound 0.1 µM, first compound 3.16 µM) of the same compound?
Its viability, T/C is 84.9%.

And the viability, T/C (second compound 0.1 µM, first compound 10 µM)?
Its viability, T/C is 79.6%.

What about the viability, T/C (second compound 0.316 µM, first compound 0.0316 µM) of the same compound?
The viability, T/C was 128%.

And the viability, T/C (second compound 0.316 µM, first compound 0.1 µM)?
The viability, T/C was 114%.

And the viability, T/C (second compound 0.316 µM, first compound 0.316 µM)?
The viability, T/C was 118%.

And the viability, T/C (second compound 0.316 µM, first compound 1 µM)?
The viability, T/C was 86.9%.

And the viability, T/C (second compound 0.316 µM, first compound 3.16 µM)?
Its viability, T/C is 78.9%.

What about the viability, T/C (second compound 0.316 µM, first compound 10 µM) of the same compound?
Its viability, T/C is 87.7%.

What about the viability, T/C (second compound 1 µM, first compound 0.0316 µM) of the same compound?
Its viability, T/C is 119%.

What about the viability, T/C (second compound 1 µM, first compound 0.1 µM) of the same compound?
The viability, T/C was 123%.

What about the viability, T/C (second compound 1 µM, first compound 0.316 µM) of the same compound?
Its viability, T/C is 125%.

What about the viability, T/C (second compound 1 µM, first compound 1 µM) of the same compound?
The viability, T/C was 104%.

And the viability, T/C (second compound 1 µM, first compound 3.16 µM)?
The viability, T/C was 78.7%.

What about the viability, T/C (second compound 1 µM, first compound 10 µM) of the same compound?
Its viability, T/C is 90.9%.

And the viability, T/C (second compound 3.16 µM, first compound 0.0316 µM)?
The viability, T/C was 153%.

What about the viability, T/C (second compound 3.16 µM, first compound 0.1 µM) of the same compound?
The viability, T/C was 122%.

And the viability, T/C (second compound 3.16 µM, first compound 0.316 µM)?
Its viability, T/C is 138%.

What about the viability, T/C (second compound 3.16 µM, first compound 1 µM) of the same compound?
Its viability, T/C is 133%.

What about the viability, T/C (second compound 3.16 µM, first compound 3.16 µM) of the same compound?
Its viability, T/C is 99.2%.

And the viability, T/C (second compound 3.16 µM, first compound 10 µM)?
The viability, T/C was 99%.

What about the viability, T/C (second compound 10 µM, first compound 0.0316 µM) of the same compound?
Its viability, T/C is 165%.

And the viability, T/C (second compound 10 µM, first compound 0.1 µM)?
Its viability, T/C is 186%.

What about the viability, T/C (second compound 10 µM, first compound 0.316 µM) of the same compound?
Its viability, T/C is 165%.

What about the viability, T/C (second compound 10 µM, first compound 1 µM) of the same compound?
The viability, T/C was 187%.

What about the viability, T/C (second compound 10 µM, first compound 3.16 µM) of the same compound?
The viability, T/C was 133%.

And the viability, T/C (second compound 10 µM, first compound 10 µM)?
The viability, T/C was 105%.

Which IC50 (second compound 0.03 µM) does the source give for O=C(c1ccc(F)c(F)c1Nc1ccc(I)cc1F)N1CC(O)([C@@H]2CCCCN2)C1 + CCN1C(C(=O)NC23CCC(C(=O)O)(CC2)CC3)C(c2cccc(Cl)c2F)C2(C(=O)Nc3cc(Cl)ccc32)C12CCCCC2 here?
Its IC50 is 511 nM.

And the IC50 (second compound 0.0949 µM)?
The IC50 was 660 nM.

What about the IC50 (second compound 0.3 µM) of the same compound?
The IC50 was 581 nM.

And the IC50 (second compound 0.949 µM)?
Its IC50 is 455 nM.

What about the IC50 (second compound 3 µM) of the same compound?
Its IC50 is 286 nM.

What about the viability, T/C [1] of the same compound?
Its viability, T/C is 102%.

And the viability, T/C [2]?
The viability, T/C was 100%.

What about the viability, T/C [3] of the same compound?
Its viability, T/C is 113%.

And the viability, T/C [4]?
The viability, T/C was 153%.

What about the viability, T/C (second compound 0.03 µM, first compound 0.316 µM) of the same compound?
The viability, T/C was 60.5%.

And the viability, T/C (second compound 0.03 µM, first compound 1 µM)?
The viability, T/C was 35.2%.

What about the viability, T/C [5] of the same compound?
The viability, T/C was 91.6%.

What about the viability, T/C [6] of the same compound?
Its viability, T/C is 91.1%.

What about the viability, T/C [7] of the same compound?
Its viability, T/C is 151%.

And the viability, T/C [8]?
Its viability, T/C is 151%.

And the viability, T/C (second compound 0.0949 µM, first compound 0.316 µM)?
Its viability, T/C is 69.5%.

What about the viability, T/C (second compound 0.0949 µM, first compound 1 µM) of the same compound?
Its viability, T/C is 39%.

What about the viability, T/C [9] of the same compound?
Its viability, T/C is 87.6%.

And the viability, T/C [10]?
The viability, T/C was 108%.

And the viability, T/C [11]?
Its viability, T/C is 132%.

What about the viability, T/C [12] of the same compound?
Its viability, T/C is 144%.

And the viability, T/C (second compound 0.3 µM, first compound 0.316 µM)?
Its viability, T/C is 61.3%.

What about the viability, T/C (second compound 0.3 µM, first compound 1 µM) of the same compound?
The viability, T/C was 39.9%.

What about the viability, T/C [13] of the same compound?
Its viability, T/C is 96.2%.

What about the viability, T/C [14] of the same compound?
Its viability, T/C is 111%.

What about the viability, T/C [15] of the same compound?
The viability, T/C was 157%.

What about the viability, T/C [16] of the same compound?
The viability, T/C was 127%.

And the viability, T/C (second compound 0.949 µM, first compound 0.316 µM)?
The viability, T/C was 56%.

And the viability, T/C (second compound 0.949 µM, first compound 1 µM)?
Its viability, T/C is 37%.

And the viability, T/C [17]?
The viability, T/C was 112%.

And the viability, T/C [18]?
The viability, T/C was 128%.

What about the viability, T/C [19] of the same compound?
Its viability, T/C is 174%.

And the viability, T/C [20]?
Its viability, T/C is 111%.

And the viability, T/C (second compound 3 µM, first compound 0.316 µM)?
Its viability, T/C is 48.2%.

What about the viability, T/C (second compound 3 µM, first compound 1 µM) of the same compound?
The viability, T/C was 40.1%.

Which results are given for Cn1ncnc1[C@H]1c2n[nH]c(=O)c3cc(F)cc(c23)N[C@@H]1c1ccc(F)cc1 + CCN1C(C(=O)NC23CCC(C(=O)O)(CC2)CC3)C(c2cccc(Cl)c2F)C2(C(=O)Nc3cc(Cl)ccc32)C12CCCCC2?
IC50 (second compound 0.03 µM): > 100 nM; IC50 (second compound 0.0949 µM): > 100 nM; IC50 (second compound 0.3 µM): > 100 nM; IC50 (second compound 0.949 µM): > 100 nM; IC50 (second compound 3 µM): > 100 nM; viability, T/C (second compound 0.03 µM, first compound 0.000316 µM): 93.2%; viability, T/C (second compound 0.03 µM, first compound 0.001 µM): 110%; viability, T/C [1]: 107%; viability, T/C [2]: 103%; viability, T/C [3]: 105%; viability, T/C [4]: 96.8%; viability, T/C (second compound 0.0949 µM, first compound 0.000316 µM): 102%; viability, T/C (second compound 0.0949 µM, first compound 0.001 µM): 95.5%; viability, T/C [5]: 95.8%; viability, T/C [6]: 111%; viability, T/C [7]: 104%; viability, T/C [8]: 114%; viability, T/C (second compound 0.3 µM, first compound 0.000316 µM): 99.5%; viability, T/C (second compound 0.3 µM, first compound 0.001 µM): 126%; viability, T/C [9]: 101%; viability, T/C [10]: 104%; viability, T/C [11]: 109%; viability, T/C [12]: 109%; viability, T/C (second compound 0.949 µM, first compound 0.000316 µM): 115%; viability, T/C (second compound 0.949 µM, first compound 0.001 µM): 115%; viability, T/C [13]: 120%; viability, T/C [14]: 108%; viability, T/C [15]: 115%; viability, T/C [16]: 120%; viability, T/C (second compound 3 µM, first compound 0.000316 µM): 119%; viability, T/C (second compound 3 µM, first compound 0.001 µM): 111%; viability, T/C [17]: 115%; viability, T/C [18]: 110%; viability, T/C [19]: 110%; viability, T/C [20]: 114%
